According to ChEMBL document CHEMBL3507680, “University of Dundee, Gates Library screen for HepG2 cell viability”:

Assay: Human HepG2 cell viability assay in 384 well format
Format: toxicity, cell-based
Design: dose 125 nL, time 70.5 hour; concentration not given beside the values
Details: HepG2 cells, read-out: Inhibition

Work on `COc1cc2[nH]c(C(=O)O)cc2c(OC)c1C` yielded a cytotoxicity at 70.5 h of -5.57%.

`CCn1nnnc1-c1cccc(NC(=O)COC2CCCC2)c1` gave a cytotoxicity at 70.5 h of 6.8%.

`CCc1n[nH]c(C2CN(C(=O)c3cnc(C)nc3CC)CCO2)n1` (stereo not given) showed a cytotoxicity at 70.5 h of -8.34%.

Molecule `Cc1noc(CNC(=O)N2CCN(c3nc(C)c(C)s3)CC2)n1` has a cytotoxicity at 70.5 h of -3.61%.

Work on `O=C(c1ccnnc1)N1C[C@@H]2CN(c3ncccn3)C[C@@H]2C1` yielded a cytotoxicity at 70.5 h of 7.41%.

Work on `OCc1nnc2n1CCN(c1cnccn1)C2` yielded a cytotoxicity at 70.5 h of -1.17%.

Work on `Cc1noc(Cl)c1CCC(=O)N1CCN(Cc2ccncc2)CC1` yielded a cytotoxicity at 70.5 h of -4.95%.

`CC(C)c1noc(CCC(=O)NC2CCS(=O)(=O)C2)n1` (stereo not given) gave a cytotoxicity at 70.5 h of 0.473%.

Molecule `COCC(=O)N1CC[C@H]2OCC[C@@]2(c2nc(C)no2)C1` has a cytotoxicity at 70.5 h of 12.4%.

`COCC1CN(C(=O)COc2ccccc2)Cc2cn(C)nc21` (stereo not given) gave a cytotoxicity at 70.5 h of -18%.

Work on `CN1CCN(c2ccc(C(=O)N3CCCC(c4ncc[nH]4)C3)cc2)CC1` (stereo not given) yielded a cytotoxicity at 70.5 h of -9.77%.

With `CCOc1ccnc(N2CCN(C(=O)c3cccc(C#N)c3)CC2)n1` the cytotoxicity at 70.5 h was -6.91%.

Work on `CCOc1ccc2c(c1)CN(Cc1nc3c(cnn3C)c(=O)[nH]1)CC2` yielded a cytotoxicity at 70.5 h of -4.82%.

For `CN1CCCC(CNC(=O)N(C)Cc2ccc(Cl)c(F)c2)C1` (stereo not given), the cytotoxicity at 70.5 h was 7.7%.

`O=C(CCNS(=O)(=O)c1ccc2c(c1)CCCC2)NCc1ccoc1` showed a cytotoxicity at 70.5 h of -11.5%.

For `Cc1nc(COCc2cnc3n2CCN(CC2CCC2)C3C)cs1` (stereo not given), the cytotoxicity at 70.5 h was -5.9%.

Work on `Cc1ccc(OC2CCN(S(=O)(=O)N(C)C)CC2)nc1` yielded a cytotoxicity at 70.5 h of -12.1%.

With `CC(C)N(C)C(=O)c1coc(CN2CCN(c3ccccc3F)CC2)n1` the cytotoxicity at 70.5 h was -3.77%.

With `CCc1nc(C(=O)N(CC)CC(=O)Nc2cc(Cl)ccc2C)c[nH]1` the cytotoxicity at 70.5 h was -4.72%.

In the case of `CNC(=O)N1CCC2(CC1)c1ncc(C)n1CCN2C`, the cytotoxicity at 70.5 h is reported as -0.582%.

`Cc1nc(-c2cccc(N3CCC(NC4CCSC4)CC3)c2)cs1` (stereo not given) gave a cytotoxicity at 70.5 h of -1.58%.

`Cc1cc(C)c(CNC(=O)C2COc3ccccc3C2)c(=O)[nH]1` (stereo not given) gave a cytotoxicity at 70.5 h of 0.458%.

With `COCc1noc(-c2nn(-c3ccc(F)cc3)c3c2CCC3)n1` the cytotoxicity at 70.5 h was -8.74%.

For `CCCC(=O)N1CCC2(CC1)CN(Cc1cccc(C)n1)C(=O)CO2`, the cytotoxicity at 70.5 h was 0.856%.

Work on `O=c1[nH]nc2c(N3CCCCCC3)nccn12` yielded a cytotoxicity at 70.5 h of -8.09%.

Molecule `CS(=O)(=O)NC1CCN(CCc2ccccc2)CC1` has a cytotoxicity at 70.5 h of -9.51%.

Work on `COc1ccc(F)cc1-c1ccccc1CC1(C(=O)O)CCOCC1` yielded a cytotoxicity at 70.5 h of 27.6%.

Molecule `CC(C)Nc1nc(O)cc(C2CC(=O)N(C3CCCCC3)C2)n1` (stereo not given) has a cytotoxicity at 70.5 h of -3.62%.

With `O=C(c1ccc(F)c(F)c1)N1CCC(Cn2cc(CO)nn2)CC1` the cytotoxicity at 70.5 h was -3.06%.

With `COCCOCCC(=O)Nc1c(-c2ccc(F)cc2)ncn1C` the cytotoxicity at 70.5 h was 17%.

In the case of `COc1ccc(F)cc1CN1CCC(O)(CN2CCCCC2)C1` (stereo not given), the cytotoxicity at 70.5 h is reported as -6.56%.

Work on `CN1CCN2C(=O)N(C3CCOCC3)C[C@H]2C1` yielded a cytotoxicity at 70.5 h of -2.12%.

In the case of `CS(=O)(=O)c1cccc(C(=O)NCc2nc3cc(F)ccc3[nH]2)c1`, the cytotoxicity at 70.5 h is reported as -5.23%.

In the case of `COCC(=O)N1CCCCC1c1ccnc(Nc2ncc(C)s2)n1` (stereo not given), the cytotoxicity at 70.5 h is reported as -0.578%.

For `Nc1nc(CCCNC(=O)C2CCCN(Cc3ccco3)C2)cs1` (stereo not given), the cytotoxicity at 70.5 h was 8.32%.

`CN(C)c1ccc(CNC2(c3ccc(F)cc3)CCOCC2)cc1F` gave a cytotoxicity at 70.5 h of -7.63%.

Work on `COCCCNC(=O)Cc1cc(-c2ccc(Cl)cc2)on1` yielded a cytotoxicity at 70.5 h of 3.59%.

`CCC(=O)c1ccc(OCC(=O)NC(C)c2nnn[nH]2)cc1` (stereo not given) gave a cytotoxicity at 70.5 h of -0.478%.

`Cc1cccc(-c2ccc(C(=O)N3CCSCC3)c(=O)[nH]2)c1` gave a cytotoxicity at 70.5 h of 0.198%.

In the case of `CCn1c(C)cc(C(=O)N2C[C@@H](C(=O)O)[C@H](c3ccccc3)C2)c1C`, the cytotoxicity at 70.5 h is reported as -2.74%.

Molecule `CN1CCCC(NC(=O)c2ccc(C(=O)c3cc[nH]c3)cc2)C1` (stereo not given) has a cytotoxicity at 70.5 h of -16.9%.

In the case of `CCOCCC1(CNC(=O)c2ccncc2Cl)CCC1`, the cytotoxicity at 70.5 h is reported as -2.65%.

Work on `Cc1nc(C)c(C(=O)NCCNc2ncccc2C(F)(F)F)s1` yielded a cytotoxicity at 70.5 h of -7.63%.

`OC1(CNCCc2nc(Cc3ccccc3)no2)CNCCOC1` (stereo not given) gave a cytotoxicity at 70.5 h of 0.264%.

For `Cc1ccc(C)c(OCc2cc(C(=O)N(C)Cc3nonc3C)no2)c1`, the cytotoxicity at 70.5 h was 3.12%.
